The source made the active and inactive calls.
What was measured:
[1] = target: T1, Bcl-2-related protein A1 (Mus musculus, UniProt Q07440); assay type: functional;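 further: confirmatory dose–response counterscreen on Bfl-1, used to check hits from a UBC13 polyubiquitin inhibitor campaign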
T1 sequence (Q07440 whole entry): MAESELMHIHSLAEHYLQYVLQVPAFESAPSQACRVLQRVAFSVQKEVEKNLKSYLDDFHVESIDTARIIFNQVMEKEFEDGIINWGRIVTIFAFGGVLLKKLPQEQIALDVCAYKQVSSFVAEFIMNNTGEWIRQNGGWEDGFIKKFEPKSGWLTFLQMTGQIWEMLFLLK

[2] = target: T2, Ubiquitin-conjugating enzyme E2 N (Homo sapiens, UniProt P61088); assay type: functional
T2 sequence (P61088 whole entry): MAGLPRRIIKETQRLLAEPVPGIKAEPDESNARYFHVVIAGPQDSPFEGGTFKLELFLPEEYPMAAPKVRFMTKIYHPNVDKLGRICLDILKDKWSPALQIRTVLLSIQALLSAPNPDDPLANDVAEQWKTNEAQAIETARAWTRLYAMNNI

[3] = target: Neurotensin receptor type 1 (Homo sapiens, UniProt P30989); assay type: functional;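 further: Image-based confirmatory dose-response assay measuring agonist activity at NTR1; NTR1-expressing U2OS osteosarcoma cells imaged for beta-arrestin GFP spot formation; agonist potency where compounds increase beta-arrestin recruitment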
[4] = target: T2, Ubiquitin-conjugating enzyme E2 N; assay type: functional; remark: listed apart in the source
[5] = tested on: INS1; assay: INS-1E survival protection against cytokine death – cell-based, luminescence, retest, dose response (AID 449756); assay type: functional;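 further: cell death triggered by IL-1 beta plus TNF-alpha plus IFN-gamma mixture; protective hits raise ATP signal compared with cytokine alone wells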
[6] = reduction of Shn3 3'UTR-driven luciferase in osteoblasts – cell-based, Clone20 osteoblasts, firefly luciferase, cherry-picked, dose response (AID 624132); assay type: functional;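 further: firefly luciferase luminescence from reporter carrying the Shn3 3'UTR in osteoblasts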
[7] = target: Melanocortin receptor 4 (Homo sapiens, UniProt P32245); assay type: functional, cell-based;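 further: Cell-based assay with luminescence read-out, confirmatory dose-response testing for agonist activity of biased ligands at MC4R; human U2OS cells with tagged receptor and beta-arrestin; potency of agonists that increase receptor coupling to beta-arrestin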
[8] = target: T3, Sentrin-specific protease 6 (Homo sapiens, UniProt Q9GZR1); assay type: functional;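 further: Luminescence-based dose-response confirmatory assay of SENP6 inhibition, following up an ultra-high-throughput screen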
T3 sequence (Q9GZR1 whole entry): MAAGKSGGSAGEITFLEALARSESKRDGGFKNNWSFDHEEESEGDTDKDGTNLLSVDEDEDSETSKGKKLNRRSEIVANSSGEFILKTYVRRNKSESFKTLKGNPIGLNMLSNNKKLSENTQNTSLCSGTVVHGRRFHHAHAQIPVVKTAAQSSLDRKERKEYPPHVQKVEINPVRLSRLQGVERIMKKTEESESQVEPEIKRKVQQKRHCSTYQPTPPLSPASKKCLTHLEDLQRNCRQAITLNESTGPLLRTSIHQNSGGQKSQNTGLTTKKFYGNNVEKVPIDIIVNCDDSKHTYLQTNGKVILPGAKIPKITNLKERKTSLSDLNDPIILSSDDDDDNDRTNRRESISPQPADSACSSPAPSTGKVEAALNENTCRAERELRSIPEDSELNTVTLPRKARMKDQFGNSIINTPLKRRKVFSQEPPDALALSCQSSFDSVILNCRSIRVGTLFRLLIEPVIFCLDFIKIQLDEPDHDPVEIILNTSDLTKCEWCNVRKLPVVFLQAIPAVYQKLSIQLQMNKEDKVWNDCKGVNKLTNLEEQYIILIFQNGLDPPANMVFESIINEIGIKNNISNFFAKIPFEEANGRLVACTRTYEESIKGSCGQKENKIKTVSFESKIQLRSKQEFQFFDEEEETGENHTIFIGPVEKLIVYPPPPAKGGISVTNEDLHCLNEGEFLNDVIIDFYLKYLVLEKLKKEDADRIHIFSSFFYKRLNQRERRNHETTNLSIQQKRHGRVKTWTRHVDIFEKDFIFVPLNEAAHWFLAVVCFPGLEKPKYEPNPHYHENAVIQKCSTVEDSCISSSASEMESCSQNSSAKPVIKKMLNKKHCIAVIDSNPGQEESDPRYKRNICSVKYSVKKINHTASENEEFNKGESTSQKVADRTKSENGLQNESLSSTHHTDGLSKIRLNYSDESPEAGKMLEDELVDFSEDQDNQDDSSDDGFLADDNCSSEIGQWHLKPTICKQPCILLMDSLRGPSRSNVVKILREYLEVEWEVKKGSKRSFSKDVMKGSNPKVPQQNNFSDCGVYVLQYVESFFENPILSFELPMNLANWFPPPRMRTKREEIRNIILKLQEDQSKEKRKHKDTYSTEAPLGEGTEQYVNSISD

[9] = target: Caspase-9 (Homo sapiens, UniProt P55211); assay: inhibitors of purified CASP9 protease – biochemical, fluorescence, plate reader, cherry-picked samples, selectivity assay for caspase-6 inhibitor project, dose response (AID 743293)
[10] = target: Tyrosyl-DNA phosphodiesterase 2 (Homo sapiens, UniProt O95551); assay: potency against TDP2 phosphodiesterase activity – biochemical, epi absorbance, IC50, dose response (AID 743297)
[11] = target: Caspase-7 (Homo sapiens, UniProt P55210); assay: caspase-7 enzyme inhibition, selectivity check – biochemical, DEVD-R110 fluorescence, cherry-pick, selectivity assay for caspase-6 inhibitor project, dose response (AID 743295); assay type: functional
[12] = target: Caspase-8 (Homo sapiens, UniProt Q14790); assay: inhibitors of purified CASP8 protease – biochemical, Z-IETD-R110 fluorescence, cherry-picked samples, selectivity assay for caspase-6 inhibitor project, dose response (AID 743294)
[13] = target: T4, Caspase-3 (Homo sapiens, UniProt P42574); assay: human caspase-3 protease activity blockade – biochemical, fluorescence, cherry-picked samples, selectivity assay for caspase-6 allosteric inhibitor project, dose response (AID 743291)
T4 sequence (P42574 whole entry): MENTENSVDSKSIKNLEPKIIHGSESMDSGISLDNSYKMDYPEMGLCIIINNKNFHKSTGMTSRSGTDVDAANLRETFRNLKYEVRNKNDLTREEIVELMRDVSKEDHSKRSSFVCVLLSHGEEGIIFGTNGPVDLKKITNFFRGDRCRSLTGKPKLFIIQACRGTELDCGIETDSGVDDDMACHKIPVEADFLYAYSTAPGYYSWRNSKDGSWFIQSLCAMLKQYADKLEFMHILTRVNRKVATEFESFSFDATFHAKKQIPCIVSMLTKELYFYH

[14] = target: T5, SUMO-activating enzyme (Homo sapiens, UniProt Q9UBT2); assay: blockers of UBC9-mediated SUMO conjugation – biochemical, AlphaScreen, SUMOylation inhibitor project, confirmation (AID 2018); assay type: functional
[15] = target: T5, SUMO-activating enzyme; assay: blockers of SAE1/SAE2–UBC9 SUMO transfer – biochemical, HTRF, uHTS, primary screen (AID 2006); assay type: protein-complex assay
[16] = target: Hexokinase HKDC1 (Homo sapiens, UniProt Q2TB90); assay: inhibition of HKDC1 glucose phosphorylation – biochemical, W721R variant, dose response (AID 504729); assay type: functional
[17] = target: T6, Polyadenylate-binding protein 1 (Homo sapiens, UniProt P11940); assay: MLLE binding blockers, Cy5 peptide tracer – biochemical, fluorescence polarization, Cy5-PAM2 peptide, secondary, miRNA deadenylation inhibitor project, dose response (AID 602260); assay type: functional; conditions: read-out: IC50_Mean
[18] = target: T6, Polyadenylate-binding protein 1; assay: MLLE domain peptide-binding blockers, IC50 – biochemical, fluorescence polarization, FITC-PAM2 peptide, dose response (AID 602259); assay type: functional; conditions: read-out: IC50_Mean

T5 sequence (Q9UBE0 whole entry): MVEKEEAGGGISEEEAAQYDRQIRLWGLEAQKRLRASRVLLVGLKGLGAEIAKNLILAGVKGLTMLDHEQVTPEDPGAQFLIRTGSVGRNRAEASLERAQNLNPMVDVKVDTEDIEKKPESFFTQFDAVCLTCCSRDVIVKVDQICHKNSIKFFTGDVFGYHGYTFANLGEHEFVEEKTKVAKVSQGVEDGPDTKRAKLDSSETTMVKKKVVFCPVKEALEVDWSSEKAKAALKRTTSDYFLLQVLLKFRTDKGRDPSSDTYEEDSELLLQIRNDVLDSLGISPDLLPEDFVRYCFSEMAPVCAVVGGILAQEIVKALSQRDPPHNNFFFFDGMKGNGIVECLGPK
T5 sequence (Q9UBT2 whole entry): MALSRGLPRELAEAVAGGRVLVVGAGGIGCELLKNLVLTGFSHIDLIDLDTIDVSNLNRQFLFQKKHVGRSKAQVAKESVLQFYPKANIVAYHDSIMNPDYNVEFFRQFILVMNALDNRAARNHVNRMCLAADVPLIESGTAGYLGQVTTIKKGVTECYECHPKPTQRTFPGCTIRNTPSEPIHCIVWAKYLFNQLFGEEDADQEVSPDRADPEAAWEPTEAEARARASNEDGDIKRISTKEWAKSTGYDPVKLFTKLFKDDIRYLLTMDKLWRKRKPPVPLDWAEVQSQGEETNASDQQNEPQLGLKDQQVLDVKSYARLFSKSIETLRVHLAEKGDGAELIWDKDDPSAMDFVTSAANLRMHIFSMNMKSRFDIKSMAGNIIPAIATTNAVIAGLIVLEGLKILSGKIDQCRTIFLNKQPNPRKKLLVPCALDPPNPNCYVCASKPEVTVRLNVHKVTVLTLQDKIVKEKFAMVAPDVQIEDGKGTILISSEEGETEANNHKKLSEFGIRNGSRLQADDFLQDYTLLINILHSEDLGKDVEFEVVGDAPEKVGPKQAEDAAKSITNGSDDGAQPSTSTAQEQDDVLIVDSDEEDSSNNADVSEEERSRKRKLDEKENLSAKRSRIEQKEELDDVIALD
T6 sequence (P11940 whole entry, the tested form may be a part): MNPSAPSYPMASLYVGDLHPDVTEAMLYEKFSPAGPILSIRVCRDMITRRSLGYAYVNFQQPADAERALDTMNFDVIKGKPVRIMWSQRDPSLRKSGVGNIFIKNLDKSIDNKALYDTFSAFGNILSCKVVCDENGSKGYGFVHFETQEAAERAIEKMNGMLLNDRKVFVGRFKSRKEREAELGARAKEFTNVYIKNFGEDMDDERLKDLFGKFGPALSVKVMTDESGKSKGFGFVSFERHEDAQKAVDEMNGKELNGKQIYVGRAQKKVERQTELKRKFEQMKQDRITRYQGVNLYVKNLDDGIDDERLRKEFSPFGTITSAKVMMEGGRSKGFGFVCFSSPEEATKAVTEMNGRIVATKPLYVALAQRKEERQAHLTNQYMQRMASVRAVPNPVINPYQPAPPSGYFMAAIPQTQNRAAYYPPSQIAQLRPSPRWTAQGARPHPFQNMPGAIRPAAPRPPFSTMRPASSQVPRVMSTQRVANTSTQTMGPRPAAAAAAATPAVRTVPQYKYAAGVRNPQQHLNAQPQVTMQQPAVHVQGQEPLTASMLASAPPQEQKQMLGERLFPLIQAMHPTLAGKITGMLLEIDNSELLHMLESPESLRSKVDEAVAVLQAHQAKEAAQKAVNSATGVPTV
Neurotensin receptor type 1, sequence (P30989 whole entry): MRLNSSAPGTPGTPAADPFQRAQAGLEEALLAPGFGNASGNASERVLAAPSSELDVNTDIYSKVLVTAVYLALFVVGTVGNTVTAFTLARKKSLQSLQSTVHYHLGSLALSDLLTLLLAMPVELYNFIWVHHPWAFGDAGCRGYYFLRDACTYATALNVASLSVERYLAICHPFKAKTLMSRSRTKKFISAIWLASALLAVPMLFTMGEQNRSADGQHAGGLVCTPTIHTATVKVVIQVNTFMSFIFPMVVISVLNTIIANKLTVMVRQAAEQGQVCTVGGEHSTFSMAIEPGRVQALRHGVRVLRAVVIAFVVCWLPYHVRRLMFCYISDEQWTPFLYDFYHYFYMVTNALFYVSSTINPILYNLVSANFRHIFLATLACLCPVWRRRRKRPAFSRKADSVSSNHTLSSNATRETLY
Caspase-7, sequence (P55210 24-198 limits assumed): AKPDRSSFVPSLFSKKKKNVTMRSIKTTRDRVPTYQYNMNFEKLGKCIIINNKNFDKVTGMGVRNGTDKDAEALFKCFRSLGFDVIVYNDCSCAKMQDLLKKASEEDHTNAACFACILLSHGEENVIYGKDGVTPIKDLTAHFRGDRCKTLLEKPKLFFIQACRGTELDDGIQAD
Caspase-7, sequence (P55210 207-303 limits assumed): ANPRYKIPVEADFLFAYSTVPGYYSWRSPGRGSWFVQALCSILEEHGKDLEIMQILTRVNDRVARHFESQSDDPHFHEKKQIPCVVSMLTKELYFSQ
Hexokinase HKDC1, sequence (Q2TB90 whole entry): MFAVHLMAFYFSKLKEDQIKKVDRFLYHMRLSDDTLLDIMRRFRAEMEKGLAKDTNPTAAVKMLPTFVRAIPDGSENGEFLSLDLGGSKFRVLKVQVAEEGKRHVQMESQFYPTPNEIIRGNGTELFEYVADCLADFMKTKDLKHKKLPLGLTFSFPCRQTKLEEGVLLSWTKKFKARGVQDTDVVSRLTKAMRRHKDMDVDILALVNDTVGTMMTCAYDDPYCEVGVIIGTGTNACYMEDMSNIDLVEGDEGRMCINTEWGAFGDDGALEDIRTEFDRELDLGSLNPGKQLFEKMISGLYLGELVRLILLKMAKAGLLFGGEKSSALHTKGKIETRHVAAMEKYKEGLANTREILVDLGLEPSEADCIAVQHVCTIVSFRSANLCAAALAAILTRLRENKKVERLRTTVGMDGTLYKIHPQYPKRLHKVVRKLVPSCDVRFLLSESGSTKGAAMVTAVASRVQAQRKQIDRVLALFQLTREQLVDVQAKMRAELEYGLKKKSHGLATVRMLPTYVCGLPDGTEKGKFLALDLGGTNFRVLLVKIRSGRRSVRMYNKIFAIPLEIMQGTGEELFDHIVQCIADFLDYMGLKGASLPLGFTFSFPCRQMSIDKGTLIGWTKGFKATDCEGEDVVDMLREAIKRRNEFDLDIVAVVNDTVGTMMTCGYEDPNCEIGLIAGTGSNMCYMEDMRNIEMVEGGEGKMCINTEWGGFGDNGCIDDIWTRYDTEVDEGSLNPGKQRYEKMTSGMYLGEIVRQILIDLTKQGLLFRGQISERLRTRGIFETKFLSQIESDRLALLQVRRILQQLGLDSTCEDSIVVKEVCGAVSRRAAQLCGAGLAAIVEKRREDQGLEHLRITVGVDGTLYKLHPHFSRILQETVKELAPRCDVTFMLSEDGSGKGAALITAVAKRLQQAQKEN
Melanocortin receptor 4, sequence (P32245 whole entry): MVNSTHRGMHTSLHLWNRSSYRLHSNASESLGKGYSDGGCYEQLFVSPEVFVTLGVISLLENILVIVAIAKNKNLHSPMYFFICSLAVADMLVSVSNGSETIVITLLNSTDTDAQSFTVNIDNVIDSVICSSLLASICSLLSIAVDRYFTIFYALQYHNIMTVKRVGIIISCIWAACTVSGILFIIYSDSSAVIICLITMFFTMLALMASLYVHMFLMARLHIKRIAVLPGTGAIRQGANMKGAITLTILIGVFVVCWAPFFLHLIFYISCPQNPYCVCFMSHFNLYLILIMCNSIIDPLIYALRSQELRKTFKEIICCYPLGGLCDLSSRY
Caspase-9, sequence (P55211 1-315 limits assumed): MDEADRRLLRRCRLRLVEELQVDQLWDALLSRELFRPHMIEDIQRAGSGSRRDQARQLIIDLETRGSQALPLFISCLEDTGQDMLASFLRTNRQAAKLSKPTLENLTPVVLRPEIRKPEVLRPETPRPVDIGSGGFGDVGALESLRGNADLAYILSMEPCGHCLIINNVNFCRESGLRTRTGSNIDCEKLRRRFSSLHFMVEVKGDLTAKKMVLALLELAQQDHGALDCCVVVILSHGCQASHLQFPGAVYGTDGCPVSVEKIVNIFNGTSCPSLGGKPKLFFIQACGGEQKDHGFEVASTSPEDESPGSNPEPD
Caspase-9, sequence (P55211 331-416 limits assumed): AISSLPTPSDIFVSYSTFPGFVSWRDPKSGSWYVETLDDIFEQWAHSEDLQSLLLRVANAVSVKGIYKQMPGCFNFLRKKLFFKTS
Caspase-8, sequence (Q14790 217-374 limits assumed): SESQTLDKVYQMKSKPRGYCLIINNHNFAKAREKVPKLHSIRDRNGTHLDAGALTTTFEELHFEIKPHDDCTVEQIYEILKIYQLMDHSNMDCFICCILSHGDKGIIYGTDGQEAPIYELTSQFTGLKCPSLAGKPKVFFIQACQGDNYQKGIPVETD
Caspase-8, sequence (Q14790 385-479 limits assumed): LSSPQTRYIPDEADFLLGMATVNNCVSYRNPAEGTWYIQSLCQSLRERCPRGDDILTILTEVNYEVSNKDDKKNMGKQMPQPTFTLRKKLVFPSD
Tyrosyl-DNA phosphodiesterase 2, sequence (O95551 whole entry): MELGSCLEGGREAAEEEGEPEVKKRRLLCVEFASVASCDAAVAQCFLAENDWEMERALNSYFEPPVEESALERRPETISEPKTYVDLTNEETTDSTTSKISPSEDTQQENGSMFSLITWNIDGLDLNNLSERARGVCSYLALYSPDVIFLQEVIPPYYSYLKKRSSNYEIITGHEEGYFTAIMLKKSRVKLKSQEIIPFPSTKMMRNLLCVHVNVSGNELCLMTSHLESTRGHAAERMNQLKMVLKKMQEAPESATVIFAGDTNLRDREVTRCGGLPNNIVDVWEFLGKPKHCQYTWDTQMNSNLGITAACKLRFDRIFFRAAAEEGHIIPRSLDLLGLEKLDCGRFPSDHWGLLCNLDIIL

CCCCCCCCCCOC(=O)Cn1c(COc2ccc(OC)cc2)[n+](C)c2ccccc21
IC50 [1]: 19.1 µM (active)
IC50 [2]: 12.5 µM (active)
EC50 [3]: 15.8 µM (active)
IC50 [4]: 11 µM (active)
AC50 ([5]; Rattus norvegicus, INS1): 3.65 µM (active)
AC50 ([5]; ins1): 3.47 µM (active)
AC50 [6]: 2.01 µM (active)
EC50 [7]: > 89.2 µM (inactive)

COc1cc2c(cc1OC)-c1c(OC)c(OC)cc3c1[C@H](C2)N(C)CC3
IC50 [8]: 2.21 µM (active)
AC50 [9]: 39.9 µM (active)
IC50 [10]: 6.22 µM (active)
AC50 [11]: 1.77 µM (active)
AC50 [12]: 48.1 µM (active)
AC50 [13]: 6.27 µM (active)

O=C1C(Cl)=C(N2CCC(C(=O)O)CC2)C(=O)c2ccccc21
IC50 [14]: 5.75 µM (active)
IC50 [15]: 24 µM (active)
IC50 [8]: 12.6 µM (active)
IC50 [16]: 8.29 µM (active)

COC1=C(c2ccccc2)C(=O)c2ccccc2C1=O
IC50 [17]: > 66 µM (inactive)
IC50 [18]: > 66 µM (inactive)

From ChEMBL document CHEMBL1201862, “PubChem BioAssay data set” (2004)
